One compound from paper PMC10083169, “A cationic motif upstream Engrailed2 homeodomain controls cell internalization through selective interaction with heparan sulfates” (Nature Communications, 2023) can be followed below.

One experiment has as its target T1, ExtHD (Gallus gallus, UniProt Q05917).
T1 construct: gene EN2; homeodomain plus 17-residue basic N-terminal extension (183-259); E. coli SE1, His6-Cherry fusion removed by PreScission, GPAS left at N-terminus (GPCAS with biotin-PEG2-maleimide for biotinylated form)
T1 sequence (Q05917 183-259): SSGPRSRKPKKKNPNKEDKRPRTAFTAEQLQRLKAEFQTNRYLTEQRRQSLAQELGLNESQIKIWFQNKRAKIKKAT
Kind of experiment: ITC, titration with POPG LUVs. Type of experiment: binding. As to conditions: read-out: Kd^apparent. The text has this: ITC, titration with POPG LUVs on ExtHD

A further experiment concerns the target T2, HD (Gallus gallus, UniProt Q05917).
T2 construct: gene EN2; homeodomain alone (200-259); E. coli SE1, His6-Cherry fusion removed by PreScission, GPAS left at N-terminus
T2 sequence (Q05917 200-259): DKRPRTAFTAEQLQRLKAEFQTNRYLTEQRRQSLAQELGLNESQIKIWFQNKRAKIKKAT
Kind of experiment: ITC, titration with POPG LUVs. Type of experiment: binding. As to conditions: read-out: Kd^apparent. The text has this: ITC, titration with POPG LUVs on HD

In the case of `CCCCCCCC/C=C\CCCCCCCC(=O)O[C@H](COC(=O)CCCCCCCCCCCCCCC)COP(=O)(O)OCC(O)CO` (mixture of isomers) [POPG, 1-palmitoyl-2-oleoyl-sn-glycero-3-phospho-(1’-rac-glycerol)], the Kd at ExtHD was found to be 6.8 ± 2.3 µM; on HD, 7.5 ± 2.5 µM.
